Assay results as given in patent US20090099191A1, “INHIBITION OF NF-KB” (priority 2006, published 2009).

Assays:
DNA [1] = conditions: intercalation; cited from earlier work
[2] = test system: p53 transactivation in RCC45ConALacZ cells; test: RCC cell-based p53-responsive reporter (ConALacZ) screening
From the text: Reporter cell lines with p53 responsive β-galactosidase were described in Gurova, et al. (2004). Cancer Res 64, 1951-1958. Reporter cell lines with p53 responsive luciferase was generated by transfection of p21-ConALuc plasmid with following selection on G418. Reporter cell lines with NF-κB-dependent luciferase were obtained by cotransfection of pNF-κBLuc and pEGFP-mito (Clontech) plasmids followed by selection on G418 (marker provided by pEGFP-mito plasmid). Reporter cell lines with myc, or Clock/Bmal responsive reporters were kindly provided by C. Burkhart and M. Antoch (Cleveland Clinic Foundation, OH).
2×10^4 of RCC45ConALacZ cells were plated into wells of 96 well plates in 200 μL of phenol-red free RPMI medium with standard additives. […] After 3 hours of incubation at 37° C., β-galactosidase activity was estimated by reading absorbance values Wallack 1420 plate reader (Perkin Elmer) at λ=430 nm.
For cotransfection set-up, 2×10^5 cells were plated into 6 well plates and, after overnight incubation, transfected with Lipofectamin Plus reagent (Gibco BRL) with 0.5 μg of reporter plasmids (p21-ConALuc or pNF-κBLuc) in combination with different concentrations of p53, Arf, Ss-IκB, or siHDM2 expressing plasmids. […] Luminometric and colorimetric reactions were read on the Wallack 1420 plate reader (Perkin Elmer). […]

DNA [3] = test: DNA damaging activity
tumor and normal cells = test: Toxicity to tumor versus normal cells; type: cell-based; conditions: in vitro and in vivo
Procedure: 5×10^3 of cells were plated in 6 well plates and treated with different concentrations of drugs for 24 hours. Then fresh drug-free medium was added. Number of colonies was estimated after 5-6 days of incubation. Cell survival was estimated as a percentage of intensity of methylene blue staining of treated cells, comparing with untreated control (methylene blue from stained colonies was extracted by 0.1% of SDS and quantitated spectrophotometrically).

[4] = test system: variety of tumor cell types; test: p53 activation and p53-dependent killing of tumor cell types; type: cell-based; conditions: besides RCC
NF-κB = NF-κB activity in tumor cells; type: cell-based

DNA damaging activity (DNA [3]) | Compound | DNA binding affinity (DNA [1]) | identified as p53 activator / hit in reporter screen ([2]; RCC45ConALacZ cell-based reporter assay) | p53 reactivation relative to doxorubicin ([2]; RCC45 cells, library of 59 derivatives of compound 30d9, fold of p53 activation over the effect of 2 μM of doxorubicin (FIG. 3B)) | toxicity to tumor versus normal cells (tumor and normal cells) | p53-dependent killing [4] | p53 activation [4] | effect on stimulated and basal constitutive NF-κB activity (NF-κB)
– | Cc1c2ccncc2c(C)c2c1[nH]c1ccccc12 [ellipticine] | 10^6 M^−1 | identified | – | – | – | – | –
did not show DNA damaging activity | CCN(CC)CCCC(C)Nc1c2ccc(Cl)cc2nc2ccc(OC)cc12 (stereo not drawn) [Quinacrine] | – | – | intermediate level of activity | more toxic to tumor than to normal cells | p53-dependent killing | capable of p53 activation | –
did not show DNA damaging activity | Nc1c2ccccc2nc2ccccc12 [Compound 9AA, 9-aminoacridine] | – | – | – | more toxic to tumor than to normal cells | p53-dependent killing | capable of p53 activation | block stimulated NF-κB activity and also effectively reduce basal levels of constitutive NF-κB activity
